Measurements: patent US12559474B2, “Triazine derivatives having virus replication inhibitory activity and pharmaceutical composition comprising the same” (priority 2021, dated 2026)
Read-outs that look alike come from different tables or passages of the source.

Tests used:
SARS-CoV-2 = test: microbe, parasite or virus in culture; assay type: cell-based; details: Severe acute respiratory syndrome coronavirus 2, VeroE6/TMPRSS2, 72 h, 50% SARS-CoV-2 infected cell death inhibitory concentration, VeroE6/TMPRSS2 cells, 3 days culture
SARS-CoV-2 3CL protease = SARS-CoV-2 3CL protease (Severe acute respiratory syndrome coronavirus 2, UniProt P0DTD1); test: biochemical; details: 50% SARS-CoV-2 3CL protease inhibitory concentration, read-out: IC50

Compound | EC50 (SARS-CoV-2; CellTiter-Glo 2.0) [nM] | EC50 (SARS-CoV-2; class symbols) [nM] | IC50 (SARS-CoV-2 3CL protease; given as class symbols) [nM] | IC50 (SARS-CoV-2 3CL protease; RapidFire MS) [nM]
Cn1cnc(Cn2c(=O)nc(Nc3cc4cn(CC(F)F)nc4cc3Cl)n(Cc3cc(F)c(F)c(F)c3)c2=O)n1 [Compound I-0433] | 720 | < 1000 | < 100 | 10
Cn1cnc(Cn2c(=O)nc(Nc3cc4cn(C(F)F)nc4cc3Cl)n(Cc3cc(F)c(F)c(F)c3)c2=O)n1 [Compound I-0434] | – | 1000 to 10000 | < 100 | –
N#Cc1cc(Cn2c(Nc3cc4cn(CCO)nc4cc3Cl)nc(=O)n(-c3cccc4ccccc34)c2=O)ccc1F [Compound I-0435] | – | 1000 to 10000 | < 100 | –
Cn1cc2cc(Nc3nc(=O)n(Cc4ccc[nH]c4=O)c(=O)n3Cc3cc(F)c(F)c(F)c3)c(Cl)cc2n1 [Compound I-0436] | – | < 1000 | < 100 | –
COc1cc(Cl)c(Nc2nc(=O)n(Cc3ccc[nH]c3=O)c(=O)n2Cc2cc(F)c(F)c(F)c2)c(Cl)c1 [Compound I-0437] | – | 1000 to 10000 | < 100 | –
Cc1nc2cc(Cl)c(Nc3nc(=O)n(Cc4ccc[nH]c4=O)c(=O)n3Cc3cc(F)c(F)c(F)c3)cc2n1CC(F)F [Compound I-0444] | 3940 | 1000 to 10000 | < 100 | 5.1
CC(C)(O)Cn1cc2cc(Nc3nc(=O)n(Cc4ccc[nH]c4=O)c(=O)n3Cc3cc(F)c(F)c(F)c3)c(Cl)cc2n1 [Compound I-0447] | – | 1000 to 10000 | < 100 | –
O=c1[nH]cccc1Cn1c(=O)nc(Nc2cc3cn(CCCO)nc3cc2Cl)n(Cc2cc(F)c(F)c(F)c2)c1=O [Compound I-0450] | – | 1000 to 10000 | < 100 | –
O=C1CC=CC=C1Cn1c(=O)nc(Nc2cc3cn(C4CCOCC4)nc3cc2Cl)n(Cc2cc(F)c(F)c(F)c2)c1=O [Compound I-0451] | – | 1000 to 10000 | < 100 | –
O=c1[nH]cc(Cl)cc1Cn1c(=O)nc(Nc2cc3cn(CCCO)nc3cc2Cl)n(Cc2cc(F)c(F)c(F)c2)c1=O [Compound I-0454] | – | 1000 to 10000 | < 100 | –
CC(C)(O)Cn1cc2cc(Nc3nc(=O)n(Cc4cc(Cl)c[nH]c4=O)c(=O)n3Cc3cc(F)c(F)c(F)c3)c(Cl)cc2n1 [Compound I-0455] | – | 1000 to 10000 | < 100 | –
Cc1nc2cc(Cl)c(Nc3nc(=O)n(-c4cccc5ccccc45)c(=O)n3Cc3cc(F)c(F)c(F)c3)cc2n1C [Compound I-0456] | – | 1000 to 10000 | < 100 | –
O=c1[nH]cccc1Cn1c(=O)nc(Nc2cc3c(cc2Cl)nc2n3CCOC2)n(Cc2cc(F)c(F)c(F)c2)c1=O [Compound I-0457] | 5300 | – | – | 7.2
Cc1nc2cc(Cl)c(Nc3nc(=O)n(Cc4ccc[nH]c4=O)c(=O)n3Cc3cc(F)c(F)c(F)c3)cc2o1 [Compound I-0459] | – | 1000 to 10000 | < 100 | –
CNc1nc2ccc(Nc3nc(=O)n(Cc4ccc[nH]c4=O)c(=O)n3Cc3cc(F)c(F)c(F)c3)cc2s1 [Compound I-0460] | – | 1000 to 10000 | < 100 | –
Cc1nc2cc(Nc3nc(=O)n(Cc4ccc[nH]c4=O)c(=O)n3Cc3cc(F)c(F)c(F)c3)c(Cl)cc2o1 [Compound I-0461] | – | 1000 to 10000 | < 100 | –
COC(=O)COc1ccc(Nc2nc(=O)n(Cc3ccc[nH]c3=O)c(=O)n2Cc2cc(F)c(F)c(F)c2)c(Cl)c1 [Compound I-0462] | – | 1000 to 10000 | < 100 | –
CC(=O)Nc1nc2cc(Cl)c(Nc3nc(=O)n(Cc4ccc[nH]c4=O)c(=O)n3Cc3cc(F)c(F)c(F)c3)cc2s1 [Compound I-0465] | 3270 | 1000 to 10000 | < 100 | 4.2
CC(C)(C)OC(=O)Nc1nc2cc(Cl)c(Nc3nc(=O)n(Cc4ccc[nH]c4=O)c(=O)n3Cc3cc(F)c(F)c(F)c3)cc2s1 [Compound I-0466] | – | < 1000 | < 100 | –
CNc1nc2cc(Cl)c(Nc3nc(=O)n(Cc4ccc[nH]c4=O)c(=O)n3Cc3cc(F)c(F)c(F)c3)cc2s1 [Compound I-0467] | – | 1000 to 10000 | < 100 | –
CCNc1nc2cc(Cl)c(Nc3nc(=O)n(Cc4ccc[nH]c4=O)c(=O)n3Cc3cc(F)c(F)c(F)c3)cc2s1 [Compound I-0468] | – | 1000 to 10000 | < 100 | –
O=c1[nH]cccc1Cn1c(=O)nc(Nc2cc3cn(C4CC(F)(F)C4)nc3cc2Cl)n(Cc2cc(F)c(F)c(F)c2)c1=O [Compound I-0470] | – | 1000 to 10000 | < 100 | –
CC(=O)NCCn1cc2cc(Nc3nc(=O)n(-c4cncc5ccccc45)c(=O)n3Cc3cc(F)c(F)c(F)c3)c(Cl)cc2n1 [Compound I-0471] | – | 1000 to 10000 | < 100 | –

Compound | EC50 (SARS-CoV-2; CellTiter-Glo 2.0) [nM] | EC50 (SARS-CoV-2; class symbols) [nM] | IC50 (SARS-CoV-2 3CL protease; given as class symbols) [nM] | IC50 (SARS-CoV-2 3CL protease; RapidFire MS) [nM]
O=c1nc(Nc2ccc3nn(CC(F)F)cc3c2)n(Cc2cc(F)c(F)c(F)c2)c(=O)n1-c1cncc2ccccc12 [Compound I-0472] | – | < 1000 | < 100 | –
COc1ccc(Nc2nc(=O)n(-c3cncc4ccccc34)c(=O)n2Cc2cc(F)c(F)c(C#N)c2)cc1 [Compound I-0480] | 72.6 | – | – | 6.5
N#Cc1cc(Cn2c(Nc3ccc4c(c3)CCO4)nc(=O)n(-c3cncc4ccccc34)c2=O)cc(F)c1F [Compound I-0481] | 43.2 | – | – | 2.7
Cn1cnc(Cn2c(=O)nc(Nc3cc4c(cc3Cl)OCC4)n(Cc3cc(F)c(F)c(F)c3)c2=O)n1 [Compound I-0482] | 385 | – | – | 15
Cn1cnc(Cn2c(=O)nc(Nc3cc4cn(C)nc4cc3Cl)n(Cc3cc(F)c(F)c(F)c3F)c2=O)n1 [Compound I-0483] | 395 | – | – | 9.8
Cc1cncc(-n2c(=O)nc(Nc3ccc4nn(CC(F)(F)F)cc4c3)n(Cc3cc(C#N)ccc3Cl)c2=O)c1 [II-0001] | 466 | – | – | 3.4
CN(C)C(=O)Cn1cc2cc(Nc3nc(=O)n(-c4cncc5ccccc45)c(=O)n3Cc3cc(F)c(F)cc3F)c(Cl)cc2n1 [II-0002] | – | 1000 to 10000 | < 100 | –
Cn1cnc(Cn2cc3cc(Nc4nc(=O)n(Cc5ncn(C)n5)c(=O)n4Cc4cc(Cl)c(F)cc4F)c(Cl)cc3n2)n1 [II-0003] | 17800 | – | – | 6
Cn1cnc(Cn2c(=O)nc(Nc3cc4cn(Cc5ccccn5)nc4cc3Cl)n(Cc3cc(Cl)c(F)cc3F)c2=O)n1 [II-0005] | – | 1000 to 10000 | < 100 | –
Cn1cnc(Cn2c(=O)nc(Nc3cc4cn(Cc5ccccn5)nc4cc3Cl)n(Cc3cc(F)c(F)c(Cl)c3)c2=O)n1 [II-0006] | – | 1000 to 10000 | < 100 | –
Cc1cncc(-n2c(=O)nc(Nc3cc4cn(CCN5CCOCC5)nc4cc3Cl)n(Cc3cc(F)c(F)cc3F)c2=O)c1 [II-0007] | – | < 1000 | < 100 | –
Cn1cc2cc(Nc3nc(=O)n(Cc4cc5ccsc5[nH]c4=O)c(=O)n3Cc3ccc(F)c(C#N)c3)c(Cl)cc2n1 [II-0008] | – | 1000 to 10000 | < 100 | –
CCn1cc2cc(Nc3nc(=O)n(-c4cncc(C)c4)c(=O)n3Cc3ccc(F)c(C#N)c3)ccc2n1 [II-0010] | 940 | – | – | 19
CC(=O)Nc1nc2cc(F)c(Nc3nc(=O)n(-c4cncc(C)c4)c(=O)n3Cc3ccc(F)c(C#N)c3)cc2s1 [II-0011] | – | 1000 to 10000 | < 100 | –
COc1ccc(Nc2nc(=O)n(Cc3cc(N4CCCC4)c[nH]c3=O)c(=O)n2Cc2cc(F)c(F)c(F)c2)cc1 [II-0014] | 22100 | – | – | 2400
Cc1cncc(-n2c(=O)nc(Nc3cc4cn(C)nc4cc3Cl)n(Cc3cc(C#N)c(F)cc3C)c2=O)c1 [II-0015] | 35 | – | – | 1.5
Cn1cnc(Cn2c(=O)nc(Nc3cc4c(cc3Cl)OCC4)n(Cc3cc(F)c(F)c(F)c3F)c2=O)n1 [II-0017] | – | < 1000 | < 100 | –
Cc1cncc(-n2c(=O)nc(Nc3cc4cn(C)nc4cc3Cl)n(Cc3cc(F)c(F)cc3Cc3cnn(C)c3)c2=O)c1 [II-0018] | – | 1000 to 10000 | < 100 | –
Cc1cncc(-n2c(=O)nc(Nc3cc4cn(C)nc4cc3Cl)n(Cc3ccc(F)c(C#N)c3C)c2=O)c1 [II-0020] | – | 1000 to 10000 | < 100 | –
O=c1[nH]cc(F)cc1Cn1c(=O)nc(Nc2cc3c(cc2Cl)OCC3)n(Cc2cc(F)c(F)cc2F)c1=O [II-0022] | – | < 1000 | < 100 | –
Cc1cncc(-n2c(=O)nc(Nc3cc4cn(C)nc4cc3Cl)n(Cc3cc(C#N)c(F)cc3CC(C)C)c2=O)c1 [II-0023] | – | < 1000 | < 100 | –
Cc1cncc(-n2c(=O)nc(Nc3cc4cn(C)nc4cc3Cl)n(Cc3cc(C#N)ccc3CCC(C)(C)O)c2=O)c1 [II-0024] | – | 1000 to 10000 | < 100 | –
Cc1cncc(-n2c(=O)nc(Nc3cc4cn(C)nc4cc3Cl)n(Cc3cc(F)c(F)cc3Cc3cccc(CO)c3)c2=O)c1 [II-0025] | – | 8000 | < 100 | –
